Columns and labels:
T-47D cells = experiment: T-47D cell proliferation inhibition assay (CTG); assay type: cell-based; conditions: Homo sapiens, T47D, 1 nM estradiol
Description: (4) MCF-7, T-47D, and CAMA-1 Cell Proliferation Inhibition Assay
T-47D: RPMI-1640 (without phenol red) containing 10% charcoal-stripped serum (500 mL culture medium containing 450 mL RPMI-1640, 50 mL charcoal-stripped serum).
The inhibitory effect of the test compound of formula (I) on the proliferation of MCF-7, CAMA-1, and T-47D cells was analyzed. For MCF-7 cells, ten concentration gradients ranging from 100 nM to 0.0003815 nM were tested, with three replicates for each concentration. For CAMA-1 cells, nine concentration gradients ranging from 100 nM to 0.001526 nM were tested, also with three replicates for each concentration. For T-47D cells, nine concentration gradients ranging from 2 μM to 0.00512 nM were tested, with three replicates for each concentration. Each experiment was conducted twice independently.
The T-47D cells were treated with starvation medium for three days, followed by trypsin digestion, centrifugation, resuspension, and counting. Cell suspensions were prepared using the corresponding culture medium, and 40 μL of the suspension was added to each well of a 384-well plate. The plate was then incubated at 37° C. in a cell incubator with 5% CO2. The test compound of formula (I) was dissolved in DMSO to an initial concentration of 400 μM and subjected to a 5-fold serial dilution to achieve nine different concentrations. After overnight incubation, the diluted compound was further diluted with the corresponding cell culture medium. The resulting mixture was transferred to the respective wells of the cell plate, starting with a final concentration of 2 μM, followed by a 5-fold serial dilution to achieve nine concentrations. The positive control wells contained 2 μM fulvestrant, and 1 nM estradiol was added to the entire plate. The plate was mixed, centrifuged, and incubated at 37° C. in a cell incubator with 5% CO2 for the specified number of days according to the above table.
After incubation for the specified time, the cell culture plate was removed, and the CTG reagent was added. […] The readings were taken using the Envision multi-label analyzer. […]

MDA-MB-134VI cells = experiment: MDA-MB-134VI cell proliferation inhibition assay (CTG); assay type: cell-based; conditions: Homo sapiens, 240 h, 10 days
Description: (5) HCC1428 and MDA-MB-134VI Cell Proliferation Inhibition Assay
The initial concentration of the compound of formula (I) was set at 200 nM, followed by 4-fold serial dilutions to achieve ten concentration gradients.
• 1) MDA-MB-134VI cells were cultured in DMEM complete growth medium containing 20% FBS and 1% PenStrep. • 2) When the cells in a T75 culture flask reached 80-90% cell fusion, they were digested with trypsin and collected. The cell passages used were the eighth generation for the first independent experiment and the sixth generation for the second independent experiment. • 3) The cells were centrifuged at 1000 rpm, resuspended in complete medium, and counted. The cell densities were 3.60×10^6 cells/mL for the first experiment and 1.93×10^6 cells/mL for the second experiment, with viability both exceeding 95%. • 4) Cell suspensions were prepared in complete medium at a density of 4.00×10^4 cells/mL for both experiments. […] 100 μL of CellTiter-Glo® reagent was added to each well. The plates were incubated at room temperature in the dark for 30 minutes. • 8) Luminescence values were read using a BMG plate reader.
The IC50 (half-maximal inhibitory concentration) of the compound was obtained using the following nonlinear fitting formula: […]

CYP3A = CYP3A (Homo sapiens, UniProt P08684); experiment: Inhibition of cytochrome P450 isozymes in human liver microsomes, CYP3A; assay type: in vitro ADME
Description: (1) Study on the Inhibition of Cytochrome P450 Isozymes
The probe substrate, test compound, human liver microsomes, and cofactors were incubated together. The concentration of the metabolic product of the probe substrate was detected using LC-MS/MS to calculate the IC50 values. In the vehicle control samples, the test compound was replaced with an equal volume of vehicle, and the enzyme activity of the vehicle control samples was set as 100%. […]
Upon reaching the respective reaction times for the incubation systems of the various isoenzymes, 200 μL of termination solution containing the appropriate internal standard was added to the reaction plate to terminate the reaction. […] The metabolites of the probe substrates were then analyzed using LC-MS/MS. […]
The activity of various CYP isoenzymes was reflected by the production rate of metabolites from each probe substrate. […] The residual activity percentage of each isoenzyme was determined by comparing the metabolite production rate of the probe substrate in the presence of different concentrations of the test compound or positive inhibitor to that of the vehicle control samples, then multiplying by 100%. […]

CYP3A, sequence (P08684 2-503): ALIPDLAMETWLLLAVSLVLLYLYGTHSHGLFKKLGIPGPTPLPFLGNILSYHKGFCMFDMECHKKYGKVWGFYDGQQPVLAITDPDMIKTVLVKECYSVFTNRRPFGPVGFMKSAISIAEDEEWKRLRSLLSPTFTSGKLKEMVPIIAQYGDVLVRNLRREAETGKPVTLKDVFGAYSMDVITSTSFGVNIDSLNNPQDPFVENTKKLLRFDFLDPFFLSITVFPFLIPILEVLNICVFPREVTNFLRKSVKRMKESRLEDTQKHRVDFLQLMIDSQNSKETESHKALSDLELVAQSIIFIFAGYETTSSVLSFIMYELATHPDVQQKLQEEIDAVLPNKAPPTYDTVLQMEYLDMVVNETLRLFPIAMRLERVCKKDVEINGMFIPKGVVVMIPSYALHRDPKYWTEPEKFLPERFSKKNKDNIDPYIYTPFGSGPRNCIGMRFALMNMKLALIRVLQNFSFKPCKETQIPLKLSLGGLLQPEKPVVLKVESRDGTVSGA

FCCCN1CC[C@H](Nc2cnc(C3=C(CC(F)(F)F)CCCc4c3ccc3[nH]nc(F)c43)cn2)C1 [Compound of formula (I)]
IC50 (T-47D cells; First experiment): 1.98 nM | IC50 (T-47D cells; Mean ± SD): 2.35 ± 0.37 nM | IC50 (T-47D cells; Second experiment): 2.71 nM | IC50 (MDA-MB-134VI cells; First experiment): 0.12 nM | IC50 (MDA-MB-134VI cells; Mean ± SD): 0.31 ± 0.26 nM | IC50 (MDA-MB-134VI cells; Second experiment): 0.49 nM | IC50 at 3 min (CYP3A; probe midazolam, midazolam as the substrate): 8380 nM | IC50 at 10 min (CYP3A; probe testosterone, testosterone as the substrate): 10900 nM

From patent US12410155B2, “Salt form and crystal form of tetrahydrocyclohepta indazole compound” (Zhejiang Yangli Pharmaceutical Technology Co., Ltd., priority 2021, dated 2025)
